{"source": "patent US9920058B2", "about": "“Molecules with potent DHFR binding affinity and antibacterial activity” (Georgia Tech Research Corporation, priority 2013, dated 2018)", "key": {"[1]": {"target": "dihydrofolate reductase (DHFR) from Escherichia coli (Escherichia coli, UniProt P0ABQ4)", "test": "biochemical", "assay_type": "binding", "settings": "for ΔTm: unit given in Table 4", "experimental": "The thermal shift assay was performed in a control reaction mix containing 100 mM HEPES pH 7.3, 150 mM NaCl, 5× Sypro-orange (an extrinsic fluorophore reporter from Invitrogen), 10 micromolar of the protein dihydrofolate reductase in 20 μl reaction mix. The test reaction contained 1 mM of the said compound apart from all the other constituents as mentioned above. Protein melting curves were obtained from samples aliquoted in 96-well plates using a RealPlex quantitative PCR from Eppendorf. […] A heating ramp of 1 degree Celsius/min was used from 25 degree Celsius to 74 degree Celsius and one data point was acquired for each degree increment. Appropriate dye controls and protein controls were incorporated. All the experiments were done with minimum two replicates and the mean value of the replicate Y was considered for further analysis.\nProtein melting curves were obtained from samples aliquoted in 96-well plates using a RealPlex quantitative PCR instrument from Eppendorf (Eppendorf, N.Y., USA), with Sypro orange dye from Invitrogen as the fluorescent probe. A uniform final concentration of 5× (supplied as a 5000× stock solution) was used in all experiments. […] A heating ramp of 1° C./min from 25° C. to 74° C. was used, and one data point acquired for each degree increment. For standardization, different buffers and pH were checked. Thereafter, 100 mM HEPES pH 7.3 and 150 mM NaCl were used in all unfolding experiments. The volume of each reaction was 20 μl, and appropriate dye and protein controls were included. All experiments were done with a minimum of two replicates, with the mean value considered for further analysis. […] An additional control to rule out drug-dye interaction was carried out with all the constituents kept constant except for the protein of interest. The protein/protein-drug curves were reported after subtracting the respective dye alone/drug-dye curves.\nEach melting curve was assigned a quality score (Q), the ratio of the melting-associated increase in fluorescence (ΔFmelt) to the total fluorescence range (ΔFtotal). […] Though an arbitrary Q value cutoff was not applied to judge curve quality, the curves were manually curated with Q values reported.\nSubsequent to standardization, the validity of the top 1% of […]^comb's predictions on the test set of eight diverse proteins was examined. To be conservative, we focused only on those protein/ligand pairs showing single sigmoidal thermal transition curves. The fit to Boltzmann's equation (Eq. 1) was employed to estimate the melting temperature from the observed intensity, I.\n[formula] Imin and Imax are the minimum and maximum intensities; a denotes the slope of the curve at the transition midpoint temperate, Tm. To estimate thermodynamic parameters, both van't Hoff and Gibbs-Helmholtz analyses were done.\n[formula] KL(Tm) is the ligand association constant and [L] is the free ligand concentration at Tm([LTm]˜[L]total, when [L]total>>the total concentration of protein. KD is the inverse of KL(Tm)."}, "[2]": {"system": "colon carcinoma cells HCT-116", "test": "Cytotoxicity assay on HCT-116", "assay_type": "cell-based", "settings": "for IC50: Homo sapiens, HCT-116"}, "[3]": {"system": "vancomycin-resistant E. faecium (ATCC700221) (VREF)", "test": "Antimicrobial growth inhibition (MIC), VREF"}, "[4]": {"system": "methicillin-resistant S. aureus (ATCC 33591) (MRSA)", "test": "Antimicrobial growth inhibition (MIC), MRSA"}, "[5]": {"system": "amphotericin-resistant Candida albicans (ARCA)", "test": "Antifungal growth inhibition (MIC), ARCA", "assay_type": "cell-based", "settings": "for MIC: read-out: ARCA (MIC)"}, "[6]": {"system": "several cancer cell lines including melanoma, prostrate, colon, and breast", "settings": "cited from earlier work"}, "[7]": {"system": "multi-drug resistant E. coli SMS-3-4 (ATCC BAA-1743) (MDREC)", "test": "Antimicrobial growth inhibition (MIC), MDREC", "settings": "Escherichia coli"}, "E. coli DH5α": {"system": "E. coli DH5α", "test": "Antimicrobial growth inhibition (MIC), E. coli DH5α", "settings": "Escherichia coli"}, "[8]": {"settings": "Table 5, computed from the thermal shifts obtained, read-out: KD (Approx)"}, "[9]": {"settings": "Table 5, unit from Table 6, ND: non determinable/no significant inhibition"}, "[10]": {"settings": "Table 6, ND: No significant inhibition"}, "[11]": {"settings": "Table 6, ND: No significant inhibition, read-out: HCT-116 (IC-50), inhibitory concentration for 50% growth inhibition"}, "[12]": {"settings": "Enterococcus faecium, ATCC700221, read-out: VREF (MIC), minimum inhibitory concentration required for 90% clearance"}, "[13]": {"settings": "Candida albicans, Table 5, unit from Table 1, ND: non determinable/no significant inhibition"}}, "note": "Read-outs that look alike come from different tables or passages of the source.", "data": [{"smiles": "CCOc1ccc(NC(=O)c2cc3ccccc3cc2O)cc1", "note": "[NSC50690]", "values": [{"measurement": "Kd", "setting": "[1]; [8]", "value": 463, "unit": "µM"}, {"measurement": "ΔTm", "setting": "[1]; Table 5", "value": 0.23, "unit": "°C"}]}, {"smiles": "O=C(Nc1ccc(C(=O)O)c(O)c1)c1ccccc1", "note": "[NSC159686]", "values": [{"measurement": "Kd", "setting": "[1]; [8]", "value": 12.7, "unit": "µM"}, {"measurement": "ΔTm", "setting": "[1]; Table 5", "value": 11.52, "unit": "°C"}]}, {"smiles": "N/C(CC(=O)Nc1cc(C(F)(F)F)ccc1Cl)=N\\O", "note": "[NSC379536]", "values": [{"measurement": "Kd", "setting": "[1]; [8]", "value": 28.9, "unit": "µM"}, {"measurement": "ΔTm", "setting": "[1]; Table 5", "value": 8.86, "unit": "°C"}]}, {"smiles": "COc1cc(NCc2ccccc2O)c2ncccc2c1", "note": "[NSC130801]", "values": [{"measurement": "Kd", "setting": "[1]; [8]", "value": 75, "unit": "µM"}, {"measurement": "ΔTm", "setting": "[1]; Table 5", "value": 5.84, "unit": "°C"}]}, {"smiles": "CC(C)=C(c1ccc(Cl)cc1)c1c(N)ncnc1N", "note": "[NSC157522]", "values": [{"measurement": "Kd", "setting": "[1]; [8]", "value": 19.5, "unit": "µM"}, {"measurement": "ΔTm", "setting": "[1]; Table 5", "value": 10.13, "unit": "°C"}]}, {"smiles": "CCc1nc(N)nc(N)c1-c1ccc(N(C)Cc2ccccc2)c([N+](=O)[O-])c1", "note": "[NSC382035, methylbezoprim, reference compound]", "values": [{"measurement": "HCT-116 (IC-50)", "setting": "[2]; [9]", "value": 0.182, "unit": "µg/mL"}, {"measurement": "HCT-116 (IC-50), inhibitory concentration for 50% growth inhibition", "setting": "[2]; [10]", "value": 0.182, "unit": "µg/mL"}, {"measurement": "VREF (MIC)", "setting": "[3]; [9]", "value": 31.25, "unit": "µg/mL"}, {"measurement": "VREF (MIC), minimum inhibitory concentration required for 90% clearance", "setting": "[3]; [10]", "value": 31.25, "unit": "µg/mL"}, {"measurement": "MRSA (MIC)", "setting": "[4]; [9]", "value": 31.25, "unit": "µg/mL"}, {"measurement": "MRSA (MIC), minimum inhibitory concentration required for 90% clearance", "setting": "[4]; [10]", "value": 31.25, "unit": "µg/mL"}, {"measurement": "ARCA (MIC)", "setting": "[5]; Table 5, unit from Table 1, ND: non determinable/no significant inhibition", "value": 250, "unit": "µg/mL"}]}, {"smiles": "Nc1ccc(NC(=O)c2ccc(C(=O)Nc3ccc(N)cc3)cc2)cc1", "note": "[NSC55152]", "values": [{"measurement": "Kd", "setting": "[1]; [8]", "value": 73.8, "unit": "µM"}, {"measurement": "ΔTm", "setting": "[1]; Table 5", "value": 5.89, "unit": "°C"}]}, {"smiles": "O=C(Nc1ccc(Oc2ccc(NC(=O)Nc3ccc([N+](=O)[O-])cc3)cc2)cc1)Nc1ccc([N+](=O)[O-])cc1", "note": "[NSC80735]", "values": [{"measurement": "HCT-116 (IC-50)", "setting": "[2]; [9]", "value": 10.9, "unit": "µg/mL"}, {"measurement": "Kd", "setting": "[1]; [8]", "value": 1.71, "unit": "µM"}, {"measurement": "ΔTm", "setting": "[1]; Table 5", "value": 18.16, "unit": "°C"}, {"measurement": "Kd", "setting": "[1]; text b322, read-out: KD / affinity", "value": 1.7, "unit": "µM"}]}, {"smiles": "CN(Cc1cnc2nc(N)nc(N)c2n1)c1ccc(C(=O)N[C@@H](CCC(=O)O)C(=O)O)cc1", "note": "[NSC740, methotrexate]", "values": [{"measurement": "IC50", "setting": "[2]; [11]", "value": 0.048, "unit": "µg/mL"}, {"measurement": "MIC", "setting": "[3]; [12]", "value": 500, "unit": "µg/mL"}, {"measurement": "MIC", "setting": "[5]; Candida albicans", "value": 500, "unit": "µg/mL"}]}, {"smiles": "C#CCC(Cc1cnc2nc(N)nc(N)c2n1)c1ccc(C(=O)N[C@@H](CCC(=O)O)C(=O)O)cc1", "note": "(stereo partly drawn) [NSC754230, pralatrexate, reference compound]", "values": [{"measurement": "IC50", "setting": "[2]; [11]", "value": "< 0.031", "unit": "µg/mL"}, {"measurement": "Kd", "setting": "[1]; [8]", "value": 0.499, "unit": "µM"}]}, {"smiles": "Nc1ccc(Cn2ccc3c4c(N)nc(N)nc4ccc32)cc1", "note": "[NSC309401, 7-[(4-aminophenyl)methyl]-7H-pyrrolo[3,2-f]quinazoline-1,3-diamine]", "values": [{"measurement": "IC50", "setting": "[2]; Table 5, unit from Table 6, ND: non determinable/no significant inhibition, read-out: HCT-116 (IC-50)", "value": 0.13, "unit": "µg/mL"}, {"measurement": "IC50", "setting": "[2]; [11]", "value": 0.13, "unit": "µg/mL"}, {"measurement": "MIC90", "setting": "[3]; Enterococcus faecium, ATCC700221, read-out: MIC (MIC-90, minimum inhibitory concentration for 90% growth inhibition)", "value": 31.2, "unit": "µg/mL"}, {"measurement": "MIC", "setting": "[3]; Enterococcus faecium, ATCC700221, read-out: VREF (MIC)", "value": 31.2, "unit": "µg/mL"}, {"measurement": "MIC", "setting": "[3]; [12]", "value": 31.2, "unit": "µg/mL"}, {"measurement": "activity against cancer cell lines (potency not revealed)", "setting": "[6]", "value": "has activity"}, {"measurement": "MIC", "setting": "[7]; ATCCBAA1743, read-out: MDREC (MIC), minimum inhibitory concentration required for 90% clearance", "value": 125, "unit": "µg/mL"}, {"measurement": "MIC90", "setting": "[7]; ATCCBAA1743, read-out: MIC (MIC-90, minimum inhibitory concentration for 90% growth inhibition)", "value": 125, "unit": "µg/mL"}, {"measurement": "MIC90", "setting": "[4]; Staphylococcus aureus, ATCC33591|MRSA, read-out: MIC (MIC-90, minimum inhibitory concentration for 90% growth inhibition)", "value": 31.2, "unit": "µg/mL"}, {"measurement": "MIC", "setting": "[4]; Staphylococcus aureus, ATCC33591|MRSA, read-out: MRSA (MIC), minimum inhibitory concentration required for 90% clearance", "value": 31.2, "unit": "µg/mL"}, {"measurement": "MIC", "setting": "[4]; Staphylococcus aureus, read-out: MRSA (MIC)", "value": 31.2, "unit": "µg/mL"}, {"measurement": "MIC90", "setting": "[5]; Candida albicans, read-out: MIC (MIC-90, minimum inhibitory concentration for 90% growth inhibition), Table 1, ARCA", "value": 125, "unit": "µg/mL"}, {"measurement": "MIC", "setting": "[5]; [13]", "value": 125, "unit": "µg/mL"}, {"measurement": "MIC", "setting": "E. coli DH5α; read-out: DH5α (MIC)", "value": 7.81, "unit": "µg/mL"}, {"measurement": "MIC", "setting": "E. coli DH5α; read-out: DH5α (MIC), minimum inhibitory concentration required for 90% clearance", "value": 7.81, "unit": "µg/mL"}, {"measurement": "MIC90", "setting": "E. coli DH5α; read-out: MIC (MIC-90, minimum inhibitory concentration for 90% growth inhibition)", "value": 7.81, "unit": "µg/mL"}]}, {"smiles": "C1=Cc2ccccc2Nc2ccccc21", "note": "[NSC123458]", "values": [{"measurement": "Kd", "setting": "[1]; [8]", "value": 5.64, "unit": "µM"}, {"measurement": "ΔTm", "setting": "[1]; Table 5", "value": 14.17, "unit": "°C"}]}, {"smiles": "Nc1ccc(-c2nc3nc(N)nc(N)c3nc2-c2ccc(N)cc2)cc1", "note": "[NSC61642, 6,7-bis(4-aminophenyl) pteridine-2,4-diamine, reference compound]", "values": [{"measurement": "Kd", "setting": "[1]; [8]", "value": 2.03, "unit": "µM"}, {"measurement": "MIC", "setting": "[5]; [13]", "value": 250, "unit": "µg/mL"}]}]}
